{"source": "patent US20260232767A1", "about": "“INTERLEUKIN-23 RECEPTOR ANTAGONIST PEPTIDES FOR USE IN THE TREATMENT OF PSORIASIS” (Janssen Pharmaceutica NV, priority 2023, published 2026)", "tested_on": "subjects with moderate-to-severe plaque psoriasis", "assay": "Elevated liver function tests", "type": "in vivo, human", "conditions": "through Week 56", "key": {"[1]": {"conditions": "25 mg BID, at least 1 post-baseline value"}, "[2]": {"conditions": "25 mg BID, baseline ≤ULN and at least 1 post-baseline value"}, "[3]": {"conditions": "25 mg QD, at least 1 post-baseline value"}, "[4]": {"conditions": "25 mg QD, baseline ≤ULN and at least 1 post-baseline value"}, "[5]": {"conditions": "50 mg QD, at least 1 post-baseline value"}, "[6]": {"conditions": "50 mg QD, baseline ≤ULN and at least 1 post-baseline value"}, "[7]": {"conditions": "100 mg BID, at least 1 post-baseline value"}, "[8]": {"conditions": "100 mg BID, baseline ≤ULN and at least 1 post-baseline value"}, "[9]": {"conditions": "100 mg QD, at least 1 post-baseline value"}, "[10]": {"conditions": "100 mg QD, baseline ≤ULN and at least 1 post-baseline value"}, "[11]": {"conditions": "Combined, at least 1 post-baseline value"}, "[12]": {"conditions": "Combined, baseline ≤ULN and at least 1 post-baseline value"}, "[13]": {"conditions": "Placebo → 100 mg QD, at least 1 post-baseline value"}, "[14]": {"conditions": "Placebo → 100 mg QD, baseline ≤ULN and at least 1 post-baseline value"}}}
{"smiles": "CC(=O)NCCCC[C@@H]1NC(=O)[C@H](Cc2c[nH]c3c(C)cccc23)NC(=O)[C@H]([C@@H](C)O)NC(=O)[C@H](CC(N)=O)NC(=O)[C@@H](NC(C)=O)C(C)(C)SSC(C)(C)[C@@H](C(=O)N[C@@H](Cc2ccc(OCCN)cc2)C(=O)N[C@@H](Cc2ccc3ccccc3c2)C(=O)NC2(C(=O)N[C@@H](CCC(=O)O)C(=O)N[C@@H](CC(N)=O)C(=O)N[C@@H](Cc3cccnc3)C(=O)N(C)CC(N)=O)CCOCC2)NC1=O", "note": "[IL-23 receptor antagonist peptide, Ac-[Pen]*-N-T-[W(7-Me)]-[Lys(Ac)]-[Pen]*-Phe[4-(2-aminoethoxy)]-[2-Nal]-[THP]-E-N-[3-Pal]-Sarc-NH2 (*[Pen]-[Pen]* formdisulfidebond)]", "values": [{"measurement": "Subjects with Total Bilirubin >2 × ULN and either AST or ALT ≥3 × ULN at the same timepoint", "setting": "25 mg BID", "result": 0}, {"measurement": "Subjects with ALT ≥5 × ULN", "setting": "[1]", "result": 0}, {"measurement": "Subjects with ALT ≥10 × ULN", "setting": "[1]", "result": 0}, {"measurement": "Subjects with ALT ≥20 × ULN", "setting": "[1]", "result": 0}, {"measurement": "Subjects with AST ≥5 × ULN", "setting": "[1]", "result": 0}, {"measurement": "Subjects with AST ≥10 × ULN", "setting": "[1]", "result": 0}, {"measurement": "Subjects with AST ≥20 × ULN", "setting": "[1]", "result": 0}, {"measurement": "Subjects with ALT ≥5 × ULN", "setting": "[2]", "result": 0}, {"measurement": "Subjects with ALT ≥10 × ULN", "setting": "[2]", "result": 0}, {"measurement": "Subjects with ALT ≥20 × ULN", "setting": "[2]", "result": 0}, {"measurement": "Subjects with AST ≥5 × ULN", "setting": "[2]", "result": 0}, {"measurement": "Subjects with AST ≥10 × ULN", "setting": "[2]", "result": 0}, {"measurement": "Subjects with AST ≥20 × ULN", "setting": "[2]", "result": 0}, {"measurement": "Subjects with Total Bilirubin >2 × ULN and either AST or ALT ≥3 × ULN at the same timepoint", "setting": "25 mg QD", "result": 0}, {"measurement": "Subjects with ALT >1 × ULN", "setting": "[3]", "result": 7}, {"measurement": "Subjects with ALT ≥10 × ULN", "setting": "[3]", "result": 0}, {"measurement": "Subjects with ALT ≥20 × ULN", "setting": "[3]", "result": 0}, {"measurement": "Subjects with AST ≥5 × ULN", "setting": "[3]", "result": 0}, {"measurement": "Subjects with AST ≥10 × ULN", "setting": "[3]", "result": 0}, {"measurement": "Subjects with AST ≥20 × ULN", "setting": "[3]", "result": 0}, {"measurement": "Subjects with ALT ≥10 × ULN", "setting": "[4]", "result": 0}, {"measurement": "Subjects with ALT ≥20 × ULN", "setting": "[4]", "result": 0}, {"measurement": "Subjects with AST ≥5 × ULN", "setting": "[4]", "result": 0}, {"measurement": "Subjects with AST ≥10 × ULN", "setting": "[4]", "result": 0}, {"measurement": "Subjects with AST ≥20 × ULN", "setting": "[4]", "result": 0}, {"measurement": "Subjects with Total Bilirubin >2 × ULN and either AST or ALT ≥3 × ULN at the same timepoint", "setting": "50 mg QD", "result": 0}, {"measurement": "Subjects with ALT ≥3 × ULN", "setting": "[5]", "result": 0}, {"measurement": "Subjects with ALT ≥5 × ULN", "setting": "[5]", "result": 0}, {"measurement": "Subjects with ALT ≥10 × ULN", "setting": "[5]", "result": 0}, {"measurement": "Subjects with ALT ≥20 × ULN", "setting": "[5]", "result": 0}, {"measurement": "Subjects with AST ≥3 × ULN", "setting": "[5]", "result": 0}, {"measurement": "Subjects with AST ≥5 × ULN", "setting": "[5]", "result": 0}, {"measurement": "Subjects with AST ≥10 × ULN", "setting": "[5]", "result": 0}, {"measurement": "Subjects with AST ≥20 × ULN", "setting": "[5]", "result": 0}, {"measurement": "Subjects with ALT ≥3 × ULN", "setting": "[6]", "result": 0}, {"measurement": "Subjects with ALT ≥5 × ULN", "setting": "[6]", "result": 0}, {"measurement": "Subjects with ALT ≥10 × ULN", "setting": "[6]", "result": 0}, {"measurement": "Subjects with ALT ≥20 × ULN", "setting": "[6]", "result": 0}, {"measurement": "Subjects with AST ≥3 × ULN", "setting": "[6]", "result": 0}, {"measurement": "Subjects with AST ≥5 × ULN", "setting": "[6]", "result": 0}, {"measurement": "Subjects with AST ≥10 × ULN", "setting": "[6]", "result": 0}, {"measurement": "Subjects with AST ≥20 × ULN", "setting": "[6]", "result": 0}, {"measurement": "Subjects with Total Bilirubin >2 × ULN and either AST or ALT ≥3 × ULN at the same timepoint", "setting": "100 mg BID", "result": 0}, {"measurement": "Subjects with ALT ≥3 × ULN", "setting": "[7]", "result": 5}, {"measurement": "Subjects with ALT ≥5 × ULN", "setting": "[7]", "result": 0}, {"measurement": "Subjects with ALT ≥10 × ULN", "setting": "[7]", "result": 0}, {"measurement": "Subjects with ALT ≥20 × ULN", "setting": "[7]", "result": 0}, {"measurement": "Subjects with AST ≥10 × ULN", "setting": "[7]", "result": 0}, {"measurement": "Subjects with AST ≥20 × ULN", "setting": "[7]", "result": 0}, {"measurement": "Subjects with ALT ≥5 × ULN", "setting": "[8]", "result": 0}, {"measurement": "Subjects with ALT ≥10 × ULN", "setting": "[8]", "result": 0}, {"measurement": "Subjects with ALT ≥20 × ULN", "setting": "[8]", "result": 0}, {"measurement": "Subjects with AST >1 × ULN", "setting": "[8]", "result": 4}, {"measurement": "Subjects with AST ≥10 × ULN", "setting": "[8]", "result": 0}, {"measurement": "Subjects with AST ≥20 × ULN", "setting": "[8]", "result": 0}, {"measurement": "Subjects with Total Bilirubin >2 × ULN and either AST or ALT ≥3 × ULN at the same timepoint", "setting": "100 mg QD", "result": 0}, {"measurement": "Subjects with ALT ≥5 × ULN", "setting": "[9]", "result": 0}, {"measurement": "Subjects with ALT ≥10 × ULN", "setting": "[9]", "result": 0}, {"measurement": "Subjects with ALT ≥20 × ULN", "setting": "[9]", "result": 0}, {"measurement": "Subjects with AST >1 × ULN", "setting": "[9]", "result": 9}, {"measurement": "Subjects with AST ≥5 × ULN", "setting": "[9]", "result": 0}, {"measurement": "Subjects with AST ≥10 × ULN", "setting": "[9]", "result": 0}, {"measurement": "Subjects with AST ≥20 × ULN", "setting": "[9]", "result": 0}, {"measurement": "Subjects with ALT ≥5 × ULN", "setting": "[10]", "result": 0}, {"measurement": "Subjects with ALT ≥10 × ULN", "setting": "[10]", "result": 0}, {"measurement": "Subjects with ALT ≥20 × ULN", "setting": "[10]", "result": 0}, {"measurement": "Subjects with AST ≥5 × ULN", "setting": "[10]", "result": 0}, {"measurement": "Subjects with AST ≥10 × ULN", "setting": "[10]", "result": 0}, {"measurement": "Subjects with AST ≥20 × ULN", "setting": "[10]", "result": 0}, {"measurement": "Subjects with Total Bilirubin >2 × ULN and either AST or ALT ≥3 × ULN at the same timepoint", "setting": "Combined", "result": 0}, {"measurement": "Subjects with ALT ≥10 × ULN", "setting": "[11]", "result": 0}, {"measurement": "Subjects with ALT ≥20 × ULN", "setting": "[11]", "result": 0}, {"measurement": "Subjects with AST ≥10 × ULN", "setting": "[11]", "result": 0}, {"measurement": "Subjects with AST ≥20 × ULN", "setting": "[11]", "result": 0}, {"measurement": "Subjects with ALT ≥10 × ULN", "setting": "[12]", "result": 0}, {"measurement": "Subjects with ALT ≥20 × ULN", "setting": "[12]", "result": 0}, {"measurement": "Subjects with AST ≥10 × ULN", "setting": "[12]", "result": 0}, {"measurement": "Subjects with AST ≥20 × ULN", "setting": "[12]", "result": 0}, {"measurement": "Subjects with Total Bilirubin >2 × ULN and either AST or ALT ≥3 × ULN at the same timepoint", "setting": "Placebo → 100 mg QD", "result": 0}, {"measurement": "Subjects with ALT ≥5 × ULN", "setting": "[13]", "result": 0}, {"measurement": "Subjects with ALT ≥10 × ULN", "setting": "[13]", "result": 0}, {"measurement": "Subjects with ALT ≥20 × ULN", "setting": "[13]", "result": 0}, {"measurement": "Subjects with AST ≥10 × ULN", "setting": "[13]", "result": 0}, {"measurement": "Subjects with AST ≥20 × ULN", "setting": "[13]", "result": 0}, {"measurement": "Subjects with ALT ≥5 × ULN", "setting": "[14]", "result": 0}, {"measurement": "Subjects with ALT ≥10 × ULN", "setting": "[14]", "result": 0}, {"measurement": "Subjects with ALT ≥20 × ULN", "setting": "[14]", "result": 0}, {"measurement": "Subjects with AST ≥10 × ULN", "setting": "[14]", "result": 0}, {"measurement": "Subjects with AST ≥20 × ULN", "setting": "[14]", "result": 0}]}
